According to patent publication US12503503B2, “Bispecific anti-VEGF/ANG2 antibody formulation” (Hoffmann-La Roche Inc., priority 2018, dated 2025):
Like-named read-outs stand apart in the source and are kept apart here.

What was measured:
cynomolgus monkeys = details: 14 days apart
Procedure: A toxicity study in cynomolgus monkeys was conducted in which methionine (10 mM) was a component of the vehicle and of the formulated test article CrossMAb VEGFang2-0016 (faricimab). In this study, a total of 12 animals (6 males/6 females) were treated intravitreal with 50 μL/eye two times, 14 days apart. The left eyes were treated with the vehicle (containing 10 mM methionine) and the right eyes were treated with the formulated test article CrossMAb VEGFang2-0016 (faricimab), also containing 10 mM methionine.
(§1) Three studies (in cynomolgus monkeys and in New Zealand White rabbits) were conducted in which methionine (5-25 mM) was a component of the vehicle, administered intravitreally (also 50 μL/eye) up to six times, 14 days apart.

[1] = tested on: New Zealand White rabbits; details: methionine (5-25 mM) in vehicle, intravitreal 50 μL/eye up to six times, 14 days apart
Procedure: as §1

TIE2 = TIE2 (Homo sapiens, UniProt Q02763); details: Maisonpierre et al., Science 277 (1997); read-out: affinity to TIE2 (Kd); cited from earlier work
Sequence of TIE2 (Q02763 23-1124, species assumed): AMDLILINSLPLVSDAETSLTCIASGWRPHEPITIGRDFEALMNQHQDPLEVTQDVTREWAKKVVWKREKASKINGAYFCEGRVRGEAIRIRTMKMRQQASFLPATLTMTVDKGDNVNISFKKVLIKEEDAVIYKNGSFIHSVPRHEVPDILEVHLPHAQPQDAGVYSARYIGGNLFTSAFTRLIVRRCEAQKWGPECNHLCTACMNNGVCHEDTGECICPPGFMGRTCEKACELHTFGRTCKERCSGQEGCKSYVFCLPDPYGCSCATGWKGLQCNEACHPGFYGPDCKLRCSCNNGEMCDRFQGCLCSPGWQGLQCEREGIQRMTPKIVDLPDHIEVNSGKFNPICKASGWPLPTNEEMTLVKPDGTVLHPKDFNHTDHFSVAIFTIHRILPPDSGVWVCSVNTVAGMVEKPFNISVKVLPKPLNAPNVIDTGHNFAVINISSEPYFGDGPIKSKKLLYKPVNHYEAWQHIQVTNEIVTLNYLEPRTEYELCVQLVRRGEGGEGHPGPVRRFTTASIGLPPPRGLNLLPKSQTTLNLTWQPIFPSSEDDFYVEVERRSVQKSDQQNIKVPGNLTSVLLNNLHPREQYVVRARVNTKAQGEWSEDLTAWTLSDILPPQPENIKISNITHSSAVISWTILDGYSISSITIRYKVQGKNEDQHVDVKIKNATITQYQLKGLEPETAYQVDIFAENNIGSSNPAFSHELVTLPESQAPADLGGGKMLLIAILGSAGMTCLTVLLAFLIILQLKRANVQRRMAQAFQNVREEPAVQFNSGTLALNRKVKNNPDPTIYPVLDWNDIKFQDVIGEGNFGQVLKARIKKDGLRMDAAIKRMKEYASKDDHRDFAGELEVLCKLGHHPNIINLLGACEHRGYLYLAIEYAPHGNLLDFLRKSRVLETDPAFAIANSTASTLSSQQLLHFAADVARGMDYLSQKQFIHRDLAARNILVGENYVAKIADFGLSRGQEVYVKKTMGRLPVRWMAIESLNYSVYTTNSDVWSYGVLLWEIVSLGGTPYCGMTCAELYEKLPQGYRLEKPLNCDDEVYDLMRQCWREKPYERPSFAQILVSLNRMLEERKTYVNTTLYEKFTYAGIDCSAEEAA

Row | ocular effects of methionine (cynomolgus monkeys; 10 mM methionine in vehicle and formulated faricimab, intravitreal 50 μL/eye two times) | ocular effects of methionine (cynomolgus monkeys; methionine (5-25 mM) in vehicle, intravitreal 50 μL/eye up to six times) | ocular effects of methionine [1] | Molecule | Kd (TIE2) [nM]
1 | no ocular effects | no ocular effects | no ocular effects | CSCC[C@H](N)C(=O)O [methionine] | –
2 | – | – | – | Ang-1: angiopoietin-1, ligand of TIE2 (protein, UniProt Q15389 16-498, looked up) Angiopoietin-1: HIGCSNQRRSPENSGRRYNRIQHGQCAYTFILPEHDGNCRESTTDQYNTNALQRDAPHVEPDFSSQKLQHLEHVMENYTQWLQKLENYIVENMKSEMAQIQQNAVQNHTATMLEIGTSLLSQTAEQTRKLTDVETQVLNQTSRLEIQLLENSLSTYKLEKQLLQQTNEILKIHEKNSLLEHKILEMEGKHKEELDTLKEEKENLQGLVTRQTYIIQELEKQLNRATTNNSVLQKQQLELMDTVHNLVNLCTKEGVLLKGGKREEEKPFRDCADVYQAGFNKSGIYTIYINNMPEPKKVFCNMDVNGGGWTVIQHREDGSLDFQRGWKEYKMGFGNPSGEYWLGNEFIFAITSQRQYMLRIELMDWEGNRAYSQYDRFHIGNEKQNYRLYLKGHTGTAGKQSSLILHGADFSTKDADNDNCMCKCALMLTGGWWFDACGPSNLNGMFYTAGQNHGKLNGIKWHYFKGPSYSLRSTTMMIRPLDF | 3
